The record followed here is patent US20240173432A1, “Compositions and Methods for Treatment of Myotonic Dystrophy Type 1 with CRISPR/SluCas9” (Vertex Pharmaceuticals Incorporated, priority 2021, published 2024).

Data set [1] has as its system CUG foci in primary DM1 patient myoblasts. Kind of data set: Dual-cut screening: FISH staining of CUG RNA foci. Format: cell-based, human. Conditions: sgRNA pair, primary DM1 patient myoblasts; for % of CUG foci free nuclei (DNA-PKi): 3 μM DNA-PKi Compound 6 for 48 hours; for % of CUG foci free nuclei (Vehicle): vehicle (DMSO). The protocol:
(§1) RNPs were assembled with recombinant SluCas9 protein and chemically modified sgRNAs at a ratio of 1:3 (protein:sgRNA). For SINGLE-cut screening, RNP complexes were assembled with 30 pmol of SluCas9 and 90 pmol of sgRNA in P5 Primary Cell Nucleofector Solution (Lonza). After incubation at room temperature for 20 minutes, 10 μL of RNP complex were mixed with two hundred thousand of primary myoblasts resuspended in 10 μL of P5 Nucleofector Solution. For DOUBLE-cut screening, RNP complexes were first assembled for individual sgRNAs with 20 pmol of SluCas9 protein and 60 pmol of sgRNAs in 5 μL of P5 Nucleofector Solution. After incubation at room temperature for 20 minutes, the two RNP complexes (one for upstream sgRNA and one for downstream sgRNA) were mixed at 1:1 ratio and then further mixed with two hundred thousand of primary myoblasts resuspended in 10 μL of P5 Nucleofector Solution.
(§2) The Nucleofector 96-well Shuttle System (Lonza) was used to deliver the SluCa9/sgRNA RNPs into primary DM1 patient myoblasts using the nucleofection program CM138. Following nucleofection, myoblasts from each well of nucleofection shuttle were split into six wells of the 96-well cell culture plate (Greiner, 655090) coated with matrigel. The first three wells were treated with DMSO for 48 hrs before changing to fresh myoblast growth medium, and the other three wells were treated with 3 μM of DNA-PKi Compound 6 for 48 hrs before changing to fresh myoblast growth medium. 72 hrs post nucleofection, two wells of DMSO-treated myoblasts and two wells of DNA-PKi-treated myoblasts from each nucleofection were harvested for genomic DNA extraction using the Kingfisher Flex purification system (Thermal Fisher), whereas one well of DMSO-treated myoblasts and one well of DNA-PKi-treated myoblasts were stained for RNA foci by FISH staining.
Primary myoblasts were fixed for 15 min with 4% paraformaldehyde (PFA) and washed five times with 1×PBS for 10 min each at room temperature. Before staining, cells were permeabilized with 0.5% triton X-100 in 1×PBS for 5 min at room temperature, and then washed with 30% formamide and 2× saline-sodium citrate (SSC) mixture for 10 min at room temperature. Cells were then stained with 1 ng/μL of Cy3-PNA(CAG)5 probe (PNA Bio, F5001) diluted in 30% formamide, 2×SSC, 2 μg/mL BSA, 66 μg/mL yeast tRNA, and 2 mM vanadyl complex for 15 min at 80° C. Following probe staining, cells were then washed in 30% formamide and 2×SSC mixture for 30 min at 42° C., then washed in 30% formamide and 2×SSC mixture for 30 min at 37° C., and then washed in 1×SSC solution for 10 min at room temperature, and finally washed in 1×PBS for 10 min at room temperature. Cells were next stained with anti-MBNL1 antibody (Santa Cruz, 3A4) diluted in 1% bovine serum albumin (BSA) for overnight at 4° C., and washed twice with 1×PBS for 10 min each at room temperature. Cells were then incubated with the secondary antibody goat anti-rabbit Alexa 647 (Thermo Fisher, A32728) diluted in 1% BSA for 1 hr at room temperature, and washed twice with 1×PBS for 10 min each at room temperature. Next, cells were stained with Hoechst solution (Thermo Fisher, H3569) at 0.1 mg/ml for 5 min, and washed once with 1×PBS for 5 min. PBS was aspirated and fresh 100 μl of fresh PBS is added to each well. High-throughput acquisition of images was completed with the ImageXpress Micro Confocal High-Content Imaging System (Molecular Devices). RNA foci quantifications were accomplished with a customized analysis module of the MetaXpress program (Molecular Devices).
To assess the efficiency of SluCas9 sgRNA pairs for inducing CTG repeat excision, Dual-cut screening was performed in which individual SluCas9 sgRNAs and recombinant SluCas9 protein were assembled into ribonucleoprotein (RNP) and delivered into primary DM1 patient myoblasts. Nucleofected myoblasts were treated with either DMSO (vehicle) or 3 μM of DNA-dependent Protein Kinase Inhibitor (DNA-PKi) Compound 6 for 48 hours. […]

Data set [2] concerns CTG repeat in the 3′ UTR of human DMPK gene. Kind of data set: Dual-cut screening: CTG repeat excision efficiency by loss-of-signal ddPCR. Format: cell-based. Conditions: sgRNA pair, primary DM1 patient myoblasts; for Excision efficiency (by ddPCR): 3 μM DNA-PKi Compound 6 for 48 hours; for Excision efficiency by ddPCR (Vehicle): vehicle (DMSO). The protocol:
as §1, §2
The primers and probes of ddPCR are designed using the online primer design software Primer3Plus (http://www.bioinformatics.nl/cgi-bin/primer3plus/primer3plus.cgi). In some embodiments, two target primers/probe sets were used to detect CTG repeat excision, and a reference primers/probe set were used to amplify a region located in Exon 1 of human DMPK gene and to serve as a reference control for the target sets. The 24 μL of ddPCR reaction consists of 12 μL of Supermix for Probes (no dUTP) (Bio-Rad Laboratories), 1 μL of Reference primers mix (21.6 μM), 1 μL of Reference probe (6 μM), 1 μL of Target primers mix (21.6 μM), 1 μL of Target probe (6 μM), and 8 μL of sample genomic DNA. Droplets were generated using probe oil with the QX200 Droplet Generator (Bio-Rad Laboratories). Droplets were transferred to a 96-well PCR plate, sealed and cycled in a C1000 deep well Thermocycler (Bio-Rad Laboratories) under the following cycling protocol: 1 cycle at 95° C. for 10 min; 40 cycles of 94° C. for 30 see, and 58° C. for 1 min; 1 cycle at 98° C. for 10 min (for enzyme inactivation). The cycled plate was then transferred and read in the FAM and HEX channels using the Bio-Rad QX200 Droplet Reader (Bio-Rad Laboratories). ddPCR analysis is performed with the Bio-Rad QuantaSoft Pro Software.
To assess the efficiency of SluCas9 sgRNA pairs for inducing CTG repeat excision, Dual-cut screening was performed in which individual SluCas9 sgRNAs and recombinant SluCas9 protein were assembled into ribonucleoprotein (RNP) and delivered into primary DM1 patient myoblasts. Nucleofected myoblasts were treated with either DMSO (vehicle) or 3 μM of DNA-dependent Protein Kinase Inhibitor (DNA-PKi) Compound 6 for 48 hours. 72 hours post-nucleofection, myoblasts were subjected to either genomic DNA isolation or RNA foci staining by fluorescence in situ hybridization (FISH).
CRISPR repeat excision efficiency was assessed for each of the 88 pairs (FIG. 8A-B and Table 5). CTG repeat excision efficiency percentages are shown for vehicle (DMSO; white bars) and with DNA-PKi (black bars) (FIG. 8B and Table 5).

Data set [3] has as its system CAG foci in primary DM1 patient myoblasts. The data set can be described thus: Single-cut screening: CAG foci staining. The data set is classed as cell-based, human. Conditions: single sgRNA; for % of CAG foci positive nuclei (DNA-PKi): DNA-PKi treated. The gist of the method:
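Primary DM1 patient myoblasts were PFA-fixed and hybridized with […] (1 ng/μL, 15 min at 80° C) in 30% formamide/2×SSC, followed by anti-MBNL1 immunostaining and Hoechst counterstain. CAG RNA foci were quantified by high-content confocal imaging after single-cut SuCas9 sgRNA editing.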

The test system of data set [4] is CUG foci in primary DM1 patient myoblasts. The data set can be described thus: Single-cut screening: FISH staining of CUG RNA foci. Format: cell-based, human. Conditions: single sgRNA, primary DM1 patient myoblasts; for % of CUG foci free nuclei (DNA-PKi): DNA-PKi treated. An outline of the steps:
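CD56-purified primary DM1 patient myoblasts nucleofected with SluCas9:sgRNA RNP (30:90 pmol, single-cut), then DMSO or 3 μM DNA-PK inhibitor for 48 h. At 72 h post-nucleofection, cells fixed and stained for CUG foci with Cy3-PNA(CAG)5 probe (1 ng/μL, 80 °C), co-stained for MBNL1 and Hoechst, imaged by high-content confocal microscopy.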

The test system of data set [5] is 3′ UTR of the human DMPK gene. Kind of data set: Single-cut screening: indel editing efficiency by Sanger sequencing and ICE analysis in primary DM1 patient myoblasts. Format: cell-based. Conditions: single SluCas9 sgRNA RNP in primary DM1 patient myoblasts; Sanger sequencing and ICE analysis; vehicle-treated samples. An outline of the steps: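 Indels were estimated by ICE from Sanger chromatograms of PCR amplicons covering the DMPK 3′ UTR wild-type allele, using only vehicle-treated samples; sgRNAs with R2<0.9 are flagged. Samples came from primary DM1 patient myoblasts (2 × 10^5) harvested 72 h after nucleofection with 30 pmol SluCas9 and 90 pmol single sgRNA RNP.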

Consider “SluU21 + SluD56 (guide 1 GCTCGGAGCGGTTGTGAACTGG; guide 2 CCAGCCGGCTCCGCCCGCTTCG; guide RNA; listed as DNA, chemistry not fully specified)”, for which, in data set [1], the “% of CUG foci free nuclei (DNA-PKi)” value turned out to be 85.39% and the “% of CUG foci free nuclei (Vehicle)” value is 31.9%. Moreover, in data set [2], the “Excision efficiency (by ddPCR)” value is on record as 59.97 and the “Excision efficiency by ddPCR (Vehicle)” value is given as 25.94.

As to “SluU21 + SluD34 (guide 1 GCTCGGAGCGGTTGTGAACTGG; guide 2 CGCGCCAGACGCTCCCCAGAGC; guide RNA; listed as DNA, chemistry not fully specified)”, in data set [1], the “% of CUG foci free nuclei (DNA-PKi)” value turned out to be 88.43% and the “% of CUG foci free nuclei (Vehicle)” value turned out to be 56.01%. Also, in data set [2], the “Excision efficiency (by ddPCR)” value was found to be 61.75 and the “Excision efficiency by ddPCR (Vehicle)” value amounted to 42.16.

Take “SluU59 + SluD100 (guide 1 CGCGGCCGGCGAACGGGGCTCG; guide 2 GTCCAGAGCTTTGGGCAGATGG; guide RNA; listed as DNA, chemistry not fully specified)”: in data set [1], the “% of CUG foci free nuclei (DNA-PKi)” value was 90.09% and the “% of CUG foci free nuclei (Vehicle)” value was determined as 62.45%. For the same substance, in data set [2], the “Excision efficiency (by ddPCR)” value turned out to be 68.69 and the “Excision efficiency by ddPCR (Vehicle)” value came to 37.61.

For “SluU06 + SluD48 (guide 1 TGTCTTCGACTCCGGGGCCCCG; guide 2 GAGAGCAGCGCAAGTGAGGAGG; guide RNA; listed as DNA, chemistry not fully specified)”, in data set [1], the “% of CUG foci free nuclei (DNA-PKi)” value came to 89.46% and the “% of CUG foci free nuclei (Vehicle)” value was determined as 66.88%. For the same substance, in data set [2], the “Excision efficiency (by ddPCR)” value stood at 63.33 and the “Excision efficiency by ddPCR (Vehicle)” value is 45.89.

For the substance “SluU08 + SluD32 (guide 1 GCCCCGTTGGAAGACTGAGTGC; guide 2 CTTGTGCATGACGCCCTGCTCT; guide RNA; listed as DNA, chemistry not fully specified)”, in data set [1], the “% of CUG foci free nuclei (DNA-PKi)” value is on record as 90.91% and the “% of CUG foci free nuclei (Vehicle)” value was 74.1%. Also, in data set [2], the “Excision efficiency (by ddPCR)” value stood at 73.0215 and the “Excision efficiency by ddPCR (Vehicle)” value stood at 50.87.

Turning to “SluU62 + SluD48 (guide 1 AGGACCCTTCGAGCCCCGTTCG; guide 2 GAGAGCAGCGCAAGTGAGGAGG; guide RNA; listed as DNA, chemistry not fully specified)”, in data set [1], the “% of CUG foci free nuclei (DNA-PKi)” value was determined as 88.08% and the “% of CUG foci free nuclei (Vehicle)” value is 54.22%. Moreover, in data set [2], the “Excision efficiency (by ddPCR)” value was 66.36 and the “Excision efficiency by ddPCR (Vehicle)” value is given as 35.6.

As for “cccctccctccccggccGCTAG (guide RNA; as printed in the source, key not given here) [SluU46]”, in data set [3], the “% of CAG foci positive nuclei (DNA-PKi)” value is on record as 1.5% and the “% of CAG foci positive nuclei (Vehicle)” value is recorded as 0.74%. Further, in data set [4], the “% of CUG foci free nuclei (DNA-PKi)” value was determined as 62.89% and the “% of CUG foci free nuclei (Vehicle)” value is reported as 14.46%. In addition, the Indel efficiency in data set [5] turned out to be 41%.

“CGCCGAAGCGGGCGGAGCCGGC (guide RNA; chemistry not fully specified) [SluD58]”: in data set [3], the “% of CAG foci positive nuclei (DNA-PKi)” value is 1.96% and the “% of CAG foci positive nuclei (Vehicle)” value worked out at 1.37%. In data set [4], the “% of CUG foci free nuclei (DNA-PKi)” value is 31.45% and the “% of CUG foci free nuclei (Vehicle)” value came to 18.03%. The substance further came in with an Indel efficiency in data set [5] of 33%.

Regarding “GCTTTTGCCAAACCCGCTTTTT (guide RNA; chemistry not fully specified) [SluD40]”, in data set [3], the “% of CAG foci positive nuclei (DNA-PKi)” value is listed as 1.46% and the “% of CAG foci positive nuclei (Vehicle)” value came to 1.68%. In addition, in data set [4], the “% of CUG foci free nuclei (DNA-PKi)” value came to 23.44% and the “% of CUG foci free nuclei (Vehicle)” value came out at 8.9%. Further, the Indel efficiency in data set [5] was found to be 5%.

For “TCCGAGAGCAGCGCAAGTGAGG (guide RNA; chemistry not fully specified) [SluD51]”, in data set [3], the “% of CAG foci positive nuclei (DNA-PKi)” value worked out at 2.13% and the “% of CAG foci positive nuclei (Vehicle)” value worked out at 2.15%. Further, in data set [4], the “% of CUG foci free nuclei (DNA-PKi)” value turned out to be 28.86% and the “% of CUG foci free nuclei (Vehicle)” value was 14.34%. The substance also registered an Indel efficiency in data set [5] of 33%.

For the substance “CCCAACAACCCCAATCCACGTT (guide RNA; chemistry not fully specified) [SluD70]”, in data set [3], the “% of CAG foci positive nuclei (DNA-PKi)” value stood at 2.45% and the “% of CAG foci positive nuclei (Vehicle)” value is given as 2.33%. Moreover, in data set [4], the “% of CUG foci free nuclei (DNA-PKi)” value was 30.47% and the “% of CUG foci free nuclei (Vehicle)” value was found to be 22.75%. Further, in data set [5], the Indel efficiency was found to be 14%.
